{"source": "patent US9969698B2", "about": "“Quinoxalinyl-piperazinamide methods of use” (REXAHN PHARMACEUTICALS, INC., priority 2015, dated 2018)", "key": {"[1]": {"system": "human renal tumor xenografts (Caki-1)", "format": "in vivo", "conditions": "oral; for TGI: 5 days on/2 days off, Day 21", "source_text": "The efficacy of RX-5902 in human cancer xenograft mouse models is examined. Female nude mice (nu/nu, Harlan or CRL: NU(NCr)-Foxn1^nu, Charles River), 9-10 weeks old, with a body weight (BW) range of 15-30 g on day 1 of the study, are fed ad libitum water (reverse osmosis, 1 ppm C1), and NIH 31 Modified and Irradiated Lab Diet® consisting of 18.0% crude protein, 5.0% crude fat, and 5.0% crude fiber. The mice are housed on irradiated Enrich-o'Cobs™ Laboratory Animal Bedding in static microisolators on a 12-hour light cycle at 20-22° C. (68-72° F.) and 40-60% humidity. The study complies with the recommendations of the Guide for, Care and Use of Laboratory Animals with respect to restraint, husbandry, surgical procedures, feed and fluid regulation, and veterinary care.\nVarious human tumor cell lines (e.g., HCT116, HT29, H460, H69, Caki-1, CaSki, MiaPaca2, BxPC3 and Colo 205 cells [ATCC, Manassas, Va., USA]) are cultured according to ATCC's instruction. The tumor cells are cultured in tissue culture flasks in a humidified incubator at 37° C., in an atmosphere of 5% CO2 and 95% air.\nThe cells are harvested during exponential growth and re-suspended with phosphate buffered saline. Each test animal receives a subcutaneous (s.c.) injection of 5×10^6 tumor cells into the right flank and tumor growth is monitored as the average tumor size approaches the target range of 80-300 mm^3. When tumors reach the target size mice are randomized into several groups (n=10-20) and treatment with various regimens of RX-5902 or a positive (e.g., gemcitabine) or negative control (e.g.; vehicle, saline) is initiated. Tumors and body weights are measured regularly until the study is terminated.\nTumors are measured in two dimensions using calipers, and volume is calculated using the formula:\n[formula] where w=width and 1=length, in mm, of the tumor. Tumor weight may be estimated with the assumption that 1 mg is equivalent to 1 mm^3 of tumor volume.\nTreatment begins on Day 1 in eight groups of mice (n=10-20/group) with established subcutaneous tumors of a particular cell line. Each group is treated according to the study design. All doses are adjusted per body weight. Animals in each group are divided for efficacy and sampling purposes. There are also groups designated to vehicle control and no treatment for sampling purposes.\n[…] […] Percent tumor growth inhibition (% TGI) is defined as the difference between the MTV of the designated control group (vehicle administration) and the MTV of the drug-treated group, expressed as a percentage of the MTV of the control group: % TGI=[1−(MTVdrug treated/MTVcontrol)]×100 The data set for TGI analysis includes all animals in a group, except those that die due to treatment-related (TR) or non-treatment-related (NTR) causes. An agent that produces at least 60% TGI in this assay is considered to be potentially therapeutically active.\nAnimals are monitored individually for tumor growth until Day 71. […] The time to endpoint (TTE) for each mouse is calculated with the following equation:\n[formula] where b is the intercept and m is the slope of the line obtained by linear regression of a log-transformed tumor growth data set. […] In instances in which the log-transformed calculated TTE precedes the day prior to reaching endpoint or exceeds the day of reaching tumor volume endpoint, a linear interpolation is performed to approximate TTE. Any animal determined to have died from treatment-related (TR) causes is assigned a TTE value equal to the day of death. […]"}, "p68 RNA helicase": {"target": "T1, p68 RNA helicase (Homo sapiens, UniProt P17844)", "T1 construct": "made in house", "T1 sequence (P17844 whole entry)": "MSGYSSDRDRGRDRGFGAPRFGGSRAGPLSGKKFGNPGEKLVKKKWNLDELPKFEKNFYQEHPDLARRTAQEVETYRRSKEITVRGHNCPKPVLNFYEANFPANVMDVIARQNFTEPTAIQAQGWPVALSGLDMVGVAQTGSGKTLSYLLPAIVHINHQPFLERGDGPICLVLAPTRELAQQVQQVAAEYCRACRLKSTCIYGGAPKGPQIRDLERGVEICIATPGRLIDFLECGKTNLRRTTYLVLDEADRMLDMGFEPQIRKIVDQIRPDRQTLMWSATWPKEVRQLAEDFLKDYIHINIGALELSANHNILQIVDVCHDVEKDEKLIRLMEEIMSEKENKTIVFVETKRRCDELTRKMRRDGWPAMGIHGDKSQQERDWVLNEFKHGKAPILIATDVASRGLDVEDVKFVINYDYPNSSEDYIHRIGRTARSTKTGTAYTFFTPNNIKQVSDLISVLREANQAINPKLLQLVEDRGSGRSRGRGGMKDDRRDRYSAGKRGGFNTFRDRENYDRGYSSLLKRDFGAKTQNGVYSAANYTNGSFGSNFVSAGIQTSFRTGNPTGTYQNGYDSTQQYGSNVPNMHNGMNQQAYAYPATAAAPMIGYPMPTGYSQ", "assay": "DARTS target identification (thermolysin protection, Western blot)", "format": "cell-based", "conditions": "MDA-MB-231 cells treated 0.1-10 μM for one hour", "experimental": "MDA-MB-231 cells were plated onto 6 well plates and treated with RX-5902 at various concentrations (0, 0.1, 1 and 10 μM) for one hour. Cells were lysed with p-MER buffer containing protease/phosphatase inhibitors on ice. Cell lysates were treated with thermolysin protease (1:1,500 ratio) for 10 min at RT and the reaction was stopped by addition of 0.5 M EDTA solution. The reaction mixtures were separated on a 10% SDS-PAGE visualized by Coomassie staining. After identifying several candidate proteins from mass spectrometry sequencing analysis, the protein which interacted with RX-5902 was confirmed by western blot analysis.\nProtein mix or cell lysates were separated by SDS-PAGE and transferred to PVDF membrane. The membrane was blocked by blocking buffer (1×TBST containing 5% BSA) at room temperature for 1 hour. After a brief wash, the membrane was incubated with primary antibody in blocking buffer at 4° C. overnight. […]\nWell-established target identification method DARTS assay (Lomenick et al., Proc. Natl. Acad. Sci. USA, 106:21984-21989 (2009)) was used to find target proteins that would interact with RX-5902 in cancer cells. […] To identify this protected protein, the bands along with control were sliced out, and analyzed with LC-MS/MS by ProtTech (Phoenixville, Pa.). […]"}}, "note": "Where two headings read alike, the source gives them in different places."}
{"smiles": "COc1cc(OC)cc(N2CCN(C(=O)Nc3nc4cc(F)ccc4nc3OC)CC2)c1", "note": "[RX-5902, 4-(3,5-dimethoxyphenyl)-N-(7-fluoro-3-methoxyquinoxalin-2-yl)piperazine-1-carboxamide]", "values": [{"measurement": "TGI", "setting": "[1]; 50 mg/kg daily", "value": 80, "unit": "%"}, {"measurement": "complete tumor regressions", "setting": "[1]; 70 mg/kg daily", "value": "1/10"}, {"measurement": "partial tumor regressions", "setting": "[1]; 70 mg/kg daily", "value": "6/10"}, {"measurement": "TGI", "setting": "[1]; 70 mg/kg daily", "value": 96, "unit": "%"}, {"measurement": "overall survival of the animals", "setting": "[1]; 50 and 70 mg/kg daily, both doses (P<0.0001)", "value": "extended the overall survival"}, {"measurement": "protection of ~60 kDa band (p68 RNA helicase) from protease", "setting": "p68 RNA helicase", "value": "protected from the protease cleavage"}]}
